Laboratory results reported in ChEMBL document CHEMBL3612010, “Deprotometalation-iodolysis and computed CH acidity of 1,2,3- and 1,2,4-triazoles. Application to the synthesis of resveratrol analogues” (Bioorg Med Chem, 2015).
In brackets after ≈: the same amount, converted by molar mass.

Legend:
Pseudomonas aeruginosa = assay: Antibacterial activity against Pseudomonas aeruginosa […] after 24 hrs by broth microdilution method; type: functional
MDA-MB-231 [1] = assay: Antiproliferative activity against human MDA-MB-231 cells assessed as cell survival at 100 uM after 24 hrs by MTT assay relative to control; type: functional; conditions: MDA-MB-231, 24 h, read-out: Survival
Enterococcus faecalis = assay: Antibacterial activity against Enterococcus faecalis ATCC 29212 after 24 hrs by broth microdilution method; type: functional; conditions: ATCC 29212, 24 h
Escherichia coli = assay: Antibacterial activity against Escherichia coli ATCC 25922 after 24 hrs by broth microdilution method; type: functional; conditions: ATCC 25922, 24 h
Staphylococcus aureus [2] = assay: Antibacterial activity against Staphylococcus aureus ATCC 25923 after 24 hrs by broth microdilution method; type: functional; conditions: ATCC 25923, 24 h
Staphylococcus aureus [3] = assay: Antibacterial activity against Staphylococcus aureus ATCC 29213 after 24 hrs by broth microdilution method; type: functional; conditions: ATCC 29213, 24 h
MDA-MB-231 [4] = assay: Antiproliferative activity human MDA-MB-231 cells assessed as cell survival after 48 hrs by MTT assay; type: functional, cell-based; conditions: MDA-MB-231, 48 h
MDA-MB-231 [5] = assay: Antiproliferative activity against human MDA-MB-231 cells assessed as cell survival at 100 uM after 48 hrs by MTT assay relative to control; type: functional; conditions: MDA-MB-231, 48 h, read-out: Survival
MDA-MB-231 [6] = assay: Antiproliferative activity against human MDA-MB-231 cells assessed as cell survival at 25 uM after 48 hrs by MTT assay relative to control; type: functional; conditions: MDA-MB-231, 48 h, read-out: Survival

SMILES | MIC (Pseudomonas aeruginosa) [µg/mL] | viability at 100 µM (MDA-MB-231 [1]) [%] | MIC (Enterococcus faecalis) [µg/mL] | MIC (Escherichia coli) [µg/mL] | MIC (Staphylococcus aureus [2]) [µg/mL] | MIC (Staphylococcus aureus [3]) [µg/mL] | IC50 (MDA-MB-231 [4]) [µM] | viability at 100 µM (MDA-MB-231 [5]) [%] | viability at 25 µM (MDA-MB-231 [6]) [%]
c1ccc(-c2cnn(-c3ccccc3)n2)cc1 | 128 (≈ 578 µM) | 85.5 | 128 (≈ 578 µM) | 128 (≈ 578 µM) | 256 (≈ 1160 µM) | > 256 |  |  | 
COc1ccc(OC)c(-c2cnn(-c3ccccc3)n2)c1 | 128 (≈ 455 µM) | 94 | 128 (≈ 455 µM) | 128 (≈ 455 µM) | 256 (≈ 910 µM) | 128 (≈ 455 µM) |  |  | 
Oc1ccc(-c2cnn(-c3ccccc3)n2)cc1 | 128 (≈ 539 µM) | 102 | 64 (≈ 270 µM) | 128 (≈ 539 µM) | 128 (≈ 539 µM) | 64 (≈ 270 µM) |  |  | 
Nc1ccc(-c2cnn(-c3ccccc3)n2)cc1 | 64 (≈ 271 µM) | 66 | 128 (≈ 542 µM) | 128 (≈ 542 µM) | 256 (≈ 1080 µM) | 256 (≈ 1080 µM) |  |  | 
c1ccc(-c2cnn(-c3ccccc3-c3ccccc3)n2)cc1 | 128 (≈ 430 µM) | 49 | 128 (≈ 430 µM) | 256 (≈ 861 µM) | 256 (≈ 861 µM) | 128 (≈ 430 µM) | 52 | 23 | 
COc1ccc(-c2cnn(-c3ccccc3-c3ccc(OC)cc3)n2)cc1 | 256 (≈ 716 µM) | 75 | 256 (≈ 716 µM) | 256 (≈ 716 µM) | 256 (≈ 716 µM) | 256 (≈ 716 µM) |  |  | 
Oc1ccc(-c2cnn(-c3ccccc3-c3ccc(O)cc3)n2)cc1 | 64 (≈ 194 µM) | 54.5 | 128 (≈ 389 µM) | 128 (≈ 389 µM) | 128 (≈ 389 µM) | 128 (≈ 389 µM) | 40 | 11 | 
Nc1ccc(-c2cnn(-c3ccccc3-c3ccc(N)cc3)n2)cc1 | 128 (≈ 391 µM) | 44 | 128 (≈ 391 µM) | 128 (≈ 391 µM) | 64 (≈ 195 µM) | 128 (≈ 391 µM) | 17.5 | 2.5 | 22
Clc1cccc(-c2cnn(-c3ccccc3-c3cccc(Cl)c3)n2)c1 | 128 (≈ 349 µM) | 40.5 | 256 (≈ 699 µM) | 128 (≈ 349 µM) | 128 (≈ 349 µM) | 256 (≈ 699 µM) | 45.5 | 11 | 
FC(F)(F)Oc1ccc(-n2nccn2)cc1 | 128 (≈ 559 µM) | 58.5 | 128 (≈ 559 µM) | 256 (≈ 1120 µM) | 256 (≈ 1120 µM) | 256 (≈ 1120 µM) | 67 | 24 | 
CC1(C)S[C@@H]2[C@H](NC(=O)[C@H](N)c3ccc(O)cc3)C(=O)N2[C@H]1C(=O)O [AMOXICILLIN] |  |  |  | 4 (≈ 10.9 µM) |  |  |  |  | 
Cc1onc(-c2ccccc2)c1C(=O)N[C@@H]1C(=O)N2[C@@H]1SC(C)(C)[C@@H]2C(=O)O [OXACILLIN] |  |  |  |  | < 1 | < 1 |  |  | 
Oc1ccc(/C=C/c2cc(O)cc(O)c2)cc1 [RESVERATROL] |  | 93.4 |  |  |  |  | 130 | 60.3 | 
CC1(C)S[C@@H]2[C@H](NC(=O)[C@H](C(=O)O)c3ccsc3)C(=O)N2[C@H]1C(=O)O [TICARCILLIN] | 8 (≈ 20.8 µM) |  |  |  |  |  |  |  | 
CN[C@H](CC(C)C)C(=O)N[C@H]1C(=O)N[C@@H](CC(N)=O)C(=O)N[C@H]2C(=O)N[C@H]3C(=O)N[C@H](C(=O)N[C@H](C(=O)O)c4cc(O)cc(O)c4-c4cc3ccc4O)[C@H](O)c3ccc(c(Cl)c3)Oc3cc2cc(c3O[C@@H]2O[C@H](CO)[C@@H](O)[C@H](O)[C@H]2O[C@H]2C[C@](C)(N)[C@H](O)[C@H](C)O2)Oc2ccc(cc2Cl)[C@H]1O [VANCOMYCIN] |  |  | < 1 |  |  |  |  |  | 
